In patent publication US8304406B2, “Compounds for treating pulmonary hypertension” (Bayer Intellectual Property GmbH, priority 2006, dated 2012):

Experiments:
[1] = tested on: monocrotaline (MCT) induced pulmonary arterial hypertension in rats; assay: Pulmonary artery pressure in monocrotaline treated rats; type: in vivo, rat (male Sprague Dawley)
Method: Pulmonary Artery Pressure in Monocrotaline Treated Rats
Male Sprague Dawley rats (250-300 g) are treated with monocrotaline 60 mg/kg subcutanously (=day 0). On day 14 after monocrotaline injection treatment the compound/combination to be tested is administered. On day 28 hemodynamic parameters, i.e. right ventricular pressure, systemic blood pressure, heart rate, arterial and venous oxygen saturation are measured and compared with untreated control animals.
The mentioned monocrotaline (MCT) treated rats are randomized to receive example 14 [4-(4-chlorophenylamino)-7-(2-methylaminocarbonyl-4-pyridylmethoxy)furo-[2,3-d]pyridazine] 10 mg/kg or vehicle by gavage once daily after the onset of moderate pulmonary arterial hypertension starting 14 days after the injection of MCT until the final hemodynamic measurement on day 28. In animals with MCT induced pulmonary arterial hypertension treatment with example 14 markedly decreases right ventricular systolic pressure, compared to vehicle treated animals (control: 25±0.56 mmHg; example 14: 42.04±3.21 mmHg vs. placebo: 71.02±5.38 mmHg) (mean±SEM). This effect of example 14 is paralleled by an inhibition of right ventricular hypertrophy (right ventricle/left ventricle+septum ratio control: 0.26±0.01; example 14: 0.32±0.02 vs. placebo: 0.54±0.04).

| SMILES | melting point | right ventricle/left ventricle+septum ratio (right ventricular hypertrophy) ([1]; 10 mg/kg by gavage once daily from day 14 to day 28, day 28, control 0.26±0.01, placebo 0.54±0.04) | right ventricular systolic pressure ([1]; 10 mg/kg by gavage once daily from day 14 to day 28, measured day 28, mean±SEM, control 25±0.56, placebo 71.02±5.38) [mmHg] |
| --- | --- | --- | --- |
| NC(=O)c1cc(COc2nnc(Nc3ccc(Cl)cc3)c3ccsc23)ccn1 | 233 °C |  |  |
| CNC(=O)c1cc(COc2nnc(Nc3ccc(Cl)cc3)c3ccoc23)ccn1 [Example 14, 4-(4-chlorophenylamino)-7-(2-methylaminocarbonyl-4-pyridylmethoxy)furo-[2,3-d]pyridazine] |  | 0.32±0.02 | 42.04±3.21 |
| Clc1ccc(Nc2nnc(OCc3ccncc3)c3sccc23)cc1 | 203 to 205 °C (dec.) |  |  |
